Source: US20020173538A1, “Method for sensitizing cancer cells to cancer therapies with a mevalonate-reducing compound” (priority 2000, published 2002)
Read-outs that look alike come from different tables or passages of the source.

Legend:
Hep 3B cells [1] = experiment: Cell cycle determination by flow cytometry, Hep 3B; assay type: cell-based, human; conditions: cell line not given
Hep 3B/T2 cells [2] = experiment: Tumor growth of Hep 3B/T2 cells in nude mice; assay type: in vivo, BALB/c-nu/nu nude mice; conditions: for Tumor size: LOV 75 mg/kg/day p.o. days 8-14 and/or taxol 120 μg/kg/day i.p. days 15-19, n = 3
[3] = MTT cell viability assay, Hep G2 cells (serum-free DMEM); conditions: human, Hep G2 cells, Cell viability
Description: (§1) Human hepatoma cell lines Hep G2 and Hep 3 were chosen as the in vitro models of hepatocytes and hepatoma, respectively.

Hep G2 cells = experiment: as above; conditions: Homo sapiens
Description: as §1

Hep 3B/T2 cells [4] = experiment: Tumor growth of Hep 3B/T2 cells in nude mice; assay type: in vivo, BALB/c-nu/nu nude mice
Description: The descriptive statistics were summarized as mean±STD. For statistical analysis, Student's t-test was used to determine significance of mean differences between groups.

Hep 3B cells [5] = experiment: MTT cell viability assay, Hep 3B cells (serum-free DMEM); conditions: Homo sapiens, Hep3B, 48 h
Description: as §1

[6] = Cycle 1 (Day 42), LOV 37.5 mg/kg/day p.o. days 28-34 and 49-55 and/or taxol 120 μg/kg/2 day i.p. day 36, 38, 40, 57, 59, 61
[7] = Cycle 2 (Day 63), LOV 37.5 mg/kg/day p.o. days 28-34 and 49-55 and/or taxol 120 μg/kg/2 day i.p. day 36, 38, 40, 57, 59, 61

## CC(=O)O[C@H]1C(=O)[C@@]2(C)[C@H]([C@H](OC(=O)c3ccccc3)[C@]3(O)C[C@H](OC(=O)[C@H](O)[C@@H](NC(=O)c4ccccc4)c4ccccc4)C(C)=C1C3(C)C)[C@]1(OC(C)=O)CO[C@@H]1C[C@@H]2O [Taxol, paclitaxel]
Hep 3B cells [1]
  cell cycle arrest stage: G2/M arrest
Hep 3B/T2 cells [2]; [6]
  percentage of inhibition of tumor size: (−54.2%
Hep 3B/T2 cells [2]; Day 8
  Tumor size: 0.111 cm^3
Hep 3B/T2 cells [2]; Day 11
  Tumor size: 0.125 cm^3
Hep 3B/T2 cells [2]; Day 17
  Tumor size: 0.063 cm^3
Hep 3B/T2 cells [2]; Day 26
  Tumor size: 0.064 cm^3
Hep 3B/T2 cells [2]; Day 29
  Tumor size: 0.137 cm^3
Hep 3B/T2 cells [2]; Day 35 after inoculation, p.o. lovastatin 37.5 mg/kg/day (days 28-34, 49-55) and/or i.p. taxol 120 μg/kg/2 day (days 36, 38, 40, 57, 59, 61), mean ± SEM
  Tumor size (1 × w^2 × 0.52 cm^3) Day 35: 0.400 cm^3
Hep 3B/T2 cells [2]; Day 38 after inoculation, p.o. lovastatin 37.5 mg/kg/day (days 28-34, 49-55) and/or i.p. taxol 120 μg/kg/2 day (days 36, 38, 40, 57, 59, 61), mean ± SEM
  Tumor size (1 × w^2 × 0.52 cm^3) Day 38: 0.415 cm^3
Hep 3B/T2 cells [2]; Day 42 after inoculation, p.o. lovastatin 37.5 mg/kg/day (days 28-34, 49-55) and/or i.p. taxol 120 μg/kg/2 day (days 36, 38, 40, 57, 59, 61), mean ± SEM
  Tumor size (1 × w^2 × 0.52 cm^3) Day 42: 0.465 cm^3
Hep 3B/T2 cells [2]; Day 49 after inoculation, p.o. lovastatin 37.5 mg/kg/day (days 28-34, 49-55) and/or i.p. taxol 120 μg/kg/2 day (days 36, 38, 40, 57, 59, 61), mean ± SEM
  Tumor size (1 × w^2 × 0.52 cm^3) Day 49: 0.811 cm^3
Hep 3B/T2 cells [2]; Day 56 after inoculation, p.o. lovastatin 37.5 mg/kg/day (days 28-34, 49-55) and/or i.p. taxol 120 μg/kg/2 day (days 36, 38, 40, 57, 59, 61), mean ± SEM
  Tumor size (1 × w^2 × 0.52 cm^3) Day 56: 0.996 cm^3
Hep 3B/T2 cells [2]; Day 63 after inoculation, p.o. lovastatin 37.5 mg/kg/day (days 28-34, 49-55) and/or i.p. taxol 120 μg/kg/2 day (days 36, 38, 40, 57, 59, 61), mean ± SEM
  Tumor size (1 × w^2 × 0.52 cm^3) Day 63: 1.424 cm^3
[3]; no lovastatin 48 hr, then taxol 2 nM 48 hr
  viability at 48 h, 2 nM: 92.2 ± 1.5%
[3]; no lovastatin 48 hr, then taxol 5 nM 48 hr
  viability at 48 h, 5 nM: 61.5 ± 2.2%
[3]; no lovastatin 48 hr, then taxol 10 nM 48 hr
  viability at 48 h, 10 nM: 57.9 ± 3.3%
[3]; no lovastatin 72 hr, then taxol 2 nM 48 hr
  viability at 48 h, 2 nM: 85.1 ± 1.9%
[3]; no lovastatin 72 hr, then taxol 2 nM 72 hr
  viability at 72 hr, 2 nM: 77.7 ± 2.6%
[3]; no lovastatin 72 hr, then taxol 5 nM 48 hr
  viability at 48 h, 5 nM: 64.2 ± 1.2%
[3]; no lovastatin 72 hr, then taxol 5 nM 72 hr
  viability at 72 h, 5 nM: 65.8 ± 1.3%
[3]; no lovastatin 72 hr, then taxol 10 nM 48 hr
  viability at 48 h, 10 nM: 60.5 ± 3.2%
[3]; no lovastatin 72 hr, then taxol 10 nM 72 hr
  viability at 72 h, 10 nM: 63.6 ± 8.4%
[3]; taxol 2 nM alone, Table 10
  viability at 96 h, 2 nM: 72.4 ± 6.9%
[3]; taxol 2 nM, 48 hr
  viability at 48 h, 2 nM: 94.5 ± 5.4%
[3]; taxol 2 nM, 48 hr, Table 9
  viability at 48 h, 2 nM: 88 ± 1.9%
[3]; taxol 2 nM, 72 hr
  viability at 72 h, 2 nM: 89.2 ± 2.6%
[3]; taxol 2 nM, 72 hr, Table 9
  viability at 72 h, 2 nM: 89.2 ± 2.6%
[3]; taxol 2 nM
  viability at 96 h, 2 nM: 66.6 ± 3.5%
[3]; taxol 2 nM, 120 hr
  viability at 120 h, 2 nM: 65.1 ± 0.9%
[3]; taxol 5 nM alone, Table 10
  viability at 96 h, 5 nM: 49.3 ± 9.9%
[3]; taxol 5 nM, 48 hr
  viability at 48 h, 5 nM: 72.9 ± 4%
[3]; taxol 5 nM, 48 hr, Table 9
  viability at 48 h, 5 nM: 74.7 ± 2.3%
[3]; taxol 5 nM, 72 hr
  viability at 72 h, 5 nM: 63.7 ± 2.3%
[3]; taxol 5 nM, 72 hr, Table 9
  viability at 72 h, 5 nM: 63.7 ± 2.3%
[3]; taxol 5 nM
  viability at 96 h, 5 nM: 36.2 ± 5.5%
[3]; taxol 5 nM, 120 hr
  viability at 120 h, 5 nM: 33.8 ± 0.6%
[3]; taxol 10 nM alone, Table 10
  viability at 96 h, 10 nM: 24.8 ± 2.5%
[3]; taxol 10 nM, 48 hr
  viability at 48 h, 10 nM: 64.2 ± 3.8%
[3]; taxol 10 nM, 48 hr, Table 9
  viability at 48 h, 10 nM: 58.1 ± 8.1%
[3]; taxol 10 nM, 72 hr
  viability at 72 h, 10 nM: 39 ± 0.5%
[3]; taxol 10 nM, 72 hr, Table 9
  viability at 72 h, 10 nM: 39 ± 0.5%
[3]; taxol 10 nM
  viability at 96 h, 10 nM: 22.7 ± 4.1%
[3]; taxol 10 nM, 120 hr
  viability at 120 h, 10 nM: 19 ± 3.4%
[3]; taxol 20 nM, 48 hr
  viability at 48 h, 20 nM: 53.5 ± 1.1%
[3]; taxol 20 nM, 72 hr
  viability at 72 h, 20 nM: 35.4 ± 3.6%
[3]; taxol 50 nM, 48 hr
  viability at 48 h, 50 nM: 47 ± 2.3%
[3]; taxol 50 nM, 72 hr
  viability at 72 h, 50 nM: 33.9 ± 3.7%
[3]; taxol 100 nM, 48 hr
  viability at 48 h, 100 nM: 34.6 ± 9.1%
[3]; taxol 100 nM, 72 hr
  viability at 72 h, 100 nM: 19.5 ± 4.6%
[3]; taxol 200 nM, 48 hr
  viability at 48 h, 200 nM: 35.4 ± 5.5%
[3]; taxol 200 nM, 72 hr
  viability at 72 h, 200 nM: 15.6 ± 5.8%
[3]; taxol 500 nM, 48 hr
  viability at 48 h, 500 nM: 29.1 ± 4.2%
[3]; taxol 500 nM, 72 hr
  viability at 72 h, 500 nM: 11 ± 5%
[3]; taxol 1000 nM, 48 hr
  viability at 48 h, 1000 nM: 15 ± 3.9%
[3]; taxol 1000 nM, 72 hr
  viability at 72 h, 1000 nM: 9.9 ± 4.9%
Hep G2 cells; HepG2, 48 h, read-out: IC50 (cell viability), 48 hr, Table 8
  IC50: 40.8 ± 7 nM
Hep G2 cells; HepG2, 48 h, read-out: IC50 (cell viability), 48 hr, Table 9
  IC50: 12.4 nM
Hep G2 cells; HepG2, 72 h, read-out: IC50 (cell viability), 72 hr, Table 8
  IC50: 7.8 ± 1 nM
Hep G2 cells; HepG2, 72 h, read-out: IC50 (cell viability), 72 hr, Table 9
  IC50: 7.8 nM
Hep G2 cells; HepG2, 96 h, read-out: IC50 (cell viability), 96 hr
  IC50: 3.6 nM
Hep G2 cells; HepG2, 120 h, read-out: IC50 (cell viability), 120 hr
  IC50: 3.5 nM
Hep 3B/T2 cells [4]; [6]
  Tumor size: 0.465 cm^3
Hep 3B/T2 cells [4]; [7]
  Tumor size: 1.424 cm^3
  percentage of inhibition of tumor size: (−43.1%
Hep 3B/T2 cells [4]; Day 15, LOV 75 mg/kg/day p.o. days 8-14 and/or taxol 120 μg/kg/day i.p. days 15-19, n = 3
  Tumor size: 0.125 cm^3
Hep 3B/T2 cells [4]; Day 20, LOV 75 mg/kg/day p.o. days 8-14 and/or taxol 120 μg/kg/day i.p. days 15-19, n = 3
  Tumor size: 0.047 cm^3
Hep 3B/T2 cells [4]; Day 23, LOV 75 mg/kg/day p.o. days 8-14 and/or taxol 120 μg/kg/day i.p. days 15-19, n = 3
  Tumor size: 0.037 cm^3
Hep 3B/T2 cells [4]; Day 28 after inoculation of 1 × 10^7 Hep 3B/T2 cells in male BALB/c-nu/nu nude mice, p.o. lovastatin 37.5 mg/kg/day (days 28-34, 49-55) and/or i.p. taxol 120 μg/kg/2 day (days 36, 38, 40, 57, 59, 61), mean ± SEM
  Tumor size (1 × w^2 × 0.52 cm^3) Day 28: 0.170 cm^3
Hep 3B/T2 cells [4]; after two cycles: lovastatin fed 7 days, then paclitaxel injected 3 days (FIG. 38), mean±STD
  Tumor size: 1.43±0.46 cm^3
Hep 3B cells [5]; read-out: Cell viability, taxol 2 nM, 48 hr
  viability at 0.002 µM: 93.1 ± 1.3%
Hep 3B cells [5]; read-out: Cell viability, taxol 2 nM, 48 hr, Table 9
  viability at 0.002 µM: 97 ± 1.5%
